Measurements taken from patent US6677383B1, “Hydroxylation activated prodrugs” (De Montfort University, priority 1998, dated 2004).
Read-outs that look alike come from different tables or passages of the source.

What was measured:
[1] = MTT cytotoxicity assay, cell line expressing CYP1B1; details: Chinese hamster, V79mzhu1B1 cells (V79 cells that express CYP1B1)
Description: (§1) The cytotoxicity assay method used was a modification of the MTT cytotoxicity assay (Carmichael et al., 1987, Cancer Research, 47: 936). […] Compound stocks were made up as 100 mM in DMSO and stored for no more than one month at 4° C. The plates were then incubated at 37° C., 5% CO2, 100% humidity for a further 48 hours followed by washing by immersion 3 times in Dulbecco's PBS (phosphate buffered saline) A. 50 μl of RPMI 1640 w/o phenol red (Roswell Park Memorial Institute Medium 1640, Life Science International) with 2 mg/ml MTT was then added for four hours as above, excess MTT removed by aspiration and 125 μl of DMSO added on a vortex for 30 minutes to solubilize the product. The absorbance at A450 was recorded and the results expressed as a % survival of carrier only treated controls.

[2] = MTT cytotoxicity assay, parental cell line not expressing CYP1B1; details: Chinese hamster, V79mz cells (parental line that does not express CYP1B1)
Description: as §1

[3] = target: T1, CYP1B1 (microsomal preparation of human tumour tissue expressing the CYP1B1 enzyme) (Homo sapiens, UniProt Q16678); details: pH 7.6
T1 sequence (Q16678 1-543): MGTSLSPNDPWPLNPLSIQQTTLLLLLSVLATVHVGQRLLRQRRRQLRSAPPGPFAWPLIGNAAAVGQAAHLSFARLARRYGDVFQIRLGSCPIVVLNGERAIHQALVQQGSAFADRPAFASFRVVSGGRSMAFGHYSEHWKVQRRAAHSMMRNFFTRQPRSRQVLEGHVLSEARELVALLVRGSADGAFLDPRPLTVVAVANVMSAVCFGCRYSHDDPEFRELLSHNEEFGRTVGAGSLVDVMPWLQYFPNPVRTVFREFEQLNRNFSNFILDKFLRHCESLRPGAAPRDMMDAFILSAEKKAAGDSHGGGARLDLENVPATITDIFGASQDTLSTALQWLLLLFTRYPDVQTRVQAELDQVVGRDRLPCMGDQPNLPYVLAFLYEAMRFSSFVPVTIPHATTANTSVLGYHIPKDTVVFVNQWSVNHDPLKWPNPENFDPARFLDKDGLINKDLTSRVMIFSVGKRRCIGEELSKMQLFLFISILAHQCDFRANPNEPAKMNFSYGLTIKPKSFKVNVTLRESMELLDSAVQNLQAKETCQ
Description: (§2) A microsomal preparation of human tumour tissue expressing the CYP1B1 enzyme was prepared essentially as described by the method of Barrie et al. (1989. J. Steroid Biochem., 6: 1191-1195)
(§3) Experiment were carried out at 37° C., under yellow light.
(§4) An array of 1.5 ml centrifuge tubes were set up in a water bath shaker under aerobic conditions. To each tube was then added 500 μl of pH 7.6 buffer (0.1 M NaK2PO4), followed by NADPH (5 μl of a 25 mM stock solution). The microsomal preparation (80 μl) was then added and the tubes preincubated for 5 minutes at 37° C. The prodrug substrate was then added (10 μl of a 5 mM stock solution) and incubated for 1 hour at 37° C. After 1 hour the tubes were transferred to an ice/water cooling bath (0° C.). The tubes were then centrifuged at 1 5,000 rpm for 30 minutes. A sample of the supernatant (100 μl) was then taken and analysed by HPLC.
(§5) HPLC conditions: Spherisorb C18 (25 cm×4.6 mm id), used without guard column. Flow rate 1 ml/min. Eluent 75% 0.1 M KH2PO4 and 25% acetonitrile.

[4] = test system: V79mz cells (parental cell line which does not express CYP1B1)
Description: as §1

[5] = test system: V79mzhu1B1 cells (express the enzyme CYP1B1)
Description: as §1

[6] = test system: V79mzhu1B1 cells (express the enzyme CYP1B1); experiment: MTT cytotoxicity assay, cell line expressing CYP1B1; details: V79 IC50 versus V791B1 IC50
Description: as §1

[7] = target: T1, CYP1B1 (microsomal preparation of human tumour tissue expressing the CYP1B1 enzyme); experiment: Metabolism studies with microsomal preparation of human tumour tissue, HPLC detection of the hydroxylated metabolite; details: tumour microsomes, NADPH, pH 7.6, 1 hour at 37° C., confirmed by synthesis of authentic metabolite
Description: as §2, §3, §4, §5

COc1cc(C(=O)/C=C/c2ccc(O)cc2)cc(OC)c1OC [Compound VIII, (E)-1-(4-Hydroxyphenyl)-3-(3,4,5-trimethoxyphenyl)prop-1-en-3-one]
IC50 at 48 h [1]: 1710 nM | IC50 at 48 h [2]: 1810 nM

Oc1ccc(/C=C/c2cc(O)cc(O)c2)cc1 [Compound IIIc, (E)-(3,4′,5)-trihydroxystilbene]
aromatic hydroxylation to hydroxylated metabolite [3]: converted to the hydroxylated metabolite (E)-(3,3′,4,5′)-tetrahydroxystilbene

COc1ccc(/C=C/c2ccc(OC)cc2)cc1 [Compound IIIb, (E)-(4,4′)-Dimethoxystilbene]
IC50 [4]: 58.2 µM | IC50 [5]: 8.3 µM

COc1ccc(/C=C/C(=O)c2cc(OC)c(OC)c(OC)c2)cc1 [Compound VII, (E)-1-(4-Methoxyphenyl)-3-(3,4,5-trimethoxyphenyl)prop-1-en-3-one]
IC50 at 48 h [1]: 5 nM | fold more cytotoxic to the cell line expressing CYP1B1 than to the parental cell line not expressing this enzyme [6]: around 200 fold | IC50 at 48 h [2]: 1000 nM | aromatic hydroxylation to hydroxylated metabolite [7]: converted to the hydroxylated metabolite (E)-1-(3-Hydroxy4-methoxyphenyl)-3-(3,4,5-trimethoxyphenyl)prop-1-en-3-one

COc1ccc(/C=C(\C#N)c2cccnc2)cc1 [Compound IIa, (Z)-1-Cyano-1-(3-pyridyl)-2-(4-methoxyphenyl)ethene]
IC50 at 48 h [1]: 1630 nM | IC50 at 48 h [2]: 1810 nM | aromatic hydroxylation to hydroxylated metabolite [7]: converted to the hydroxylated metabolite (Z)-1-Cyano-1-(3-pyridyl)-2-(3-hydroxy-4-methoxyphenyl)ethene
